# In patent publication US20090270497A1, “Treatment of Non-Localized Inflammation with pan-HDAC Inhibitors” (PHARMACYCLICS, INC., priority 2008, published 2009):
# Experiments:
# [1] = tested on: RAW cells; test: Secreted cytokine protein by ELISA in LPS-treated RAW cells; assay type: cell-based; conditions: 0.1 μM for 30 min, LPS 100 ng/ml for 16 hr
# Description: Culture media was collected and analyzed by ELISA for TNFα, IL-1β and IL-6 proteins (n=3±S.D.). […] (FIG. 2).
# [2] = tested on: sepsis by treatment with LPS; test: Survival after induction of sepsis by LPS (endotoxemia); assay type: in vivo
# Procedure: At 72 hours after induction of sepsis by treatment with LPS, a subject has a 0% chance of survival. […] This remains constant through 144 hours.
# Culture media was collected and analyzed by ELISA for TNFα, IL-1β and IL-6 proteins (n=3±S.D.). […] (FIG. 4).
# [3] = tested on: inducible nitric oxide synthase (iNOS); test: iNOS expression by Western blot in LPS-treated RAW cells; assay type: cell-based; conditions: various amounts for 30 min, LPS 100 ng/ml 16 hours
# Procedure: Cell lysates were analyzed by Western blot with antibodies to the inducible nitric oxide synthase (iNOS) (above) and HuR (below) as a negative control. […] (FIG. 3).
# [4] = tested on: RAW cells; test: Cytokine mRNA expression by RT-PCR in LPS-treated RAW cells; assay type: cell-based; conditions: 0.1 μM for 30 min, then 100 ng/ml LPS 6 hours
# Procedure: RT-PCR was performed (30 cycles), and PCR products were analyzed on a 1% agarose gel. […] (FIG. 1)
# [5] = tested on: Class I and Class II HDAC isoforms; test: HDAC isoform inhibition (all Class I and Class II); assay type: biochemical
compound,measurement,setting,value
CN(C)Cc1c(C(=O)NCCOc2ccc(C(=O)NO)cc2)oc2ccccc12 [Compound 1],IL-1β protein in culture media,[1],decreases
same,IL-6 protein in culture media,[1],decreases
same,TNFα protein in culture media,[1],decreases
same,chances of survival,"[2]; 25 μg/gram of body weight, at 72 hours after LPS, steady through 144 hours",30%
same,chances of survival,"[2]; 50 μg/gram of body weight, constant through 144 hours after LPS",70%
same,increase of survival from endotoxemia,"[2]; FIG. 4 legend, dose not stated",70%
same,iNOS expression,[3],decreases in a dose-dependant manner
same,RNA level of IL-1β,[4],decreased
same,RNA level of IL-6,[4],decreased
same,RNA level of TNF,[4],decreased
same,inhibition of all Class I and Class II HDAC isoforms,[5],inhibits all Class I and Class II HDAC isoforms
